Where two headings read alike, the source gives them in different places.
Columns and labels:
Huh-7 cells = assay: Cell viability, luminescence-based CellTiter-Glo assay, Huh-7 cells; details: Homo sapiens, Huh-7, Huh-7 cells
Method: The viability of Huh-7 cells was recorded using a luminescence-based CellTiter-Glo® assay. The screening concentration of the molecules were 10 μM with or without Fer-1 (10 μM) in DMEM media (>0.1% DMSO as control).
Ferroptosis is a unique form of cell death mechanism mediated by the accumulation of lipid peroxides in cells which is distinct from healthy cells' apoptosis, a programmed […] route. We aimed to exploit the induction of ferroptosis in cancer cells using covalent small molecules as a potential strategy for cancer therapeutic development. […] We used various amide bond formation chemistry to construct the library members and these molecules are well characterized by various spectroscopic and mass spectrometry techniques. Once confirmed, these thiol reactive library members were screened in a cancer cell viability assay in combination with ferrostatin-1 (Fer-1), a ferroptosis inhibitor as depicted in FIG. 11. […] We have screened a total of ˜50 electrophilic small molecules to prevent the proliferation of hepatocellular carcinoma (Huh-7 cells) in combination with and without Fer-1. From our initial screening, we identified haloacetamides of 2-aminoalkylbenzophenone as potential ferroptosis inducers as depicted in FIG. 11.
(§1) The viability of screened cancer cells was recorded using a luminescence-based CellTiter-Glo® assay for the ATP quantification. The screening concentration of the molecule ranged from 100/10 μM to 45/4.5 nM with an 8-point-3-fold dilution series in DMEM media (>0.1% DMSO as control). Each experiment was conducted in more than two biological replicates with three technical replicates. The error bar is a representation of standard deviation among the technical replicates.
The viability of screened cancer cells was recorded using a luminescence-based CellTiter-Glo® assay for the ATP quantification. The screening concentration of IITK3002 ranged from 10 μM to 4.5 nM with an 8-point-3-fold dilution series in DMEM media (>0.1% DMSO as control). Each experiment was conducted in more than two biological replicates with three technical replicates. The error bar is a representation of standard deviation among the technical replicates. […]
a. Electrophilic Warhead Optimization: Once we identified 2-benzoylphenyl-a-haloacetamide as the lead scaffold, we have investigated the structure-activity-relationship analysis to precisely capture the effect of various chemical handles of the scaffold and use the knowledge to improve the overall potency and selectivity of this molecule to prevent cancer cell proliferation. First, we changed the haloacetamide electrophilic unit with various other electrophiles with a characteristic high, moderate, and weak reactivity with thiols when compared to chloroacetamide. Therefore, we opted vinylsulfonamide (highly reactivity), acrylamide (moderate reactivity), and phenoxyacetamides (weak reactivity warheads) for incorporation in the place of haloacetamide warhead of the top hit scaffold. Once synthesized, these molecules were evaluated to assess their antiproliferative potency against Huh-7 cells (Table 2). As expected, the introduction of weakly reactive electrophilic warheads, phenoxyactamides, completely lost the activity against Huh-7 cells. […] Perhaps, the secondary interactions of the electrophilic warhead with the target proteins might play additional roles. Therefore, we shifted our focus to optimize the rest of the core scaffold for further SAR analysis. b. Role of N-Substitutions: Next, we synthesized the NH-derivative of haloacetamides to capture the importance of N-alkylation on the activity of our hit molecule. […] Perhaps the hydrogen bonding induced planarity around the warhead influences the molecules' weakened potency. Conversely, the additional flexibility in the lead molecule (tertiary amide) might contribute to the strong antiproliferative activity of the hit molecule. […]

A549 = assay: Cell viability, A549; assay type: cell-based; details: Homo sapiens
U2OS = assay: Cell viability, CellTiter-Glo assay, U2OS; assay type: cell-based; details: Homo sapiens
Method: as §1
The viability of screened cancer cells was recorded using a luminescence-based CellTiter-Glo® assay for the ATP quantification. The screening concentration of IITK3002 ranged from 10 μM to 4.5 nM with an 8-point-3-fold dilution series in DMEM media (>0.1% DMSO as control). Each experiment was conducted in more than two biological replicates with three technical replicates. The error bar is a representation of standard deviation among the technical replicates.
a. […] In parallel, we have also synthesized the bromoacetamide (IITK3002) version of the lead molecules which is slightly more reactive with thiol nucleophiles when compared to chlorooacetamide warheads as depicted in FIG. 13. […] In addition, we also evaluated the molecules' antiproliferative potency against a panel of twelve different cancer phenotypes. The set of cancer cell lines included liver, breast, colon, myeloma, bone, blood, skin, brain and prostate lineages (FIG. 2, 3, Table 1).

[1] = cell viability, read-out: EC50 Huh-7

Row | Structure (SMILES) | EC50 (Huh-7 cells; [1]) | also measured
1 | CN(C(=O)CCl)c1ccccc1C(=O)c1ccc(-c2ccc(F)cc2F)cc1 [IITK3066, 2-chloro-N-(2-(2′,4′-difluoro-[1,1′-biphenyl]-4-carbonyl)phenyl)-N-methylacetamide] | 8.83 nM | –
2 | CN(C(=O)CCl)c1ccccc1C(=O)c1ccc(-c2ccc(C=O)cc2)cc1 [IITK3058, 2-chloro-N-(2-(4′-formyl-[1,1′-biphenyl]-4-carbonyl)phenyl)-N-methylacetamide] | 117 nM | –
3 | CN(C(=O)CCl)c1ccccc1C(=O)c1ccc(-c2ccc(C#N)cc2)cc1 [IITK3060, 2-chloro-N-(2-(4′-cyano-[1,1′-biphenyl]-4-carbonyl)phenyl)-N-methylacetamide] | 26 nM | –
4 | CN(C(=O)CCl)c1ccccc1C(=O)c1ccc(-c2ccccc2)cc1 [IITK3055, N-(2-([1,1′-biphenyl]-4-carbonyl)phenyl)-2-chloro-N-methylacetamide] | 2 nM | EC50 (Huh-7 cells; antiproliferative activity, read-out: EC50 in Huh-7 cells): 2 nM
5 | C#CCN(C(=O)COc1ccc(C(C)(C)C)cc1)c1ccccc1C(=O)c1ccccc1 [IITK3032, N-(2-benzoylphenyl)-2-(4-(tert-butyl)phenoxy)-N-(prop-2-yn-1-yl)acetamide] | > 20000 nM | –
6 | CN(C(=O)CBr)c1ccccc1C(=O)c1ccc(-c2ccccc2)cc1 [IITK3056, N-(2-([1,1′-biphenyl]-4-carbonyl)phenyl)-2-bromo-N-methylacetamide] | 13 nM | –
7 | C#CCN(C(=O)COc1c(F)c(F)c(F)c(F)c1F)c1ccccc1C(=O)c1ccccc1 [IITK3031, N-(2-benzoylphenyl)-2-(perfluorophenoxy)-N-(prop-2-yn-1-yl)acetamide] | > 20000 nM | –
8 | C=CS(=O)(=O)N(C)c1ccccc1C(=O)c1ccc(-c2ccccc2)cc1 [IITK3070, N-(2-([1,1′-biphenyl]-4-carbonyl)phenyl)-N-methylethenesulfonamide] | 8220 nM | –
9 | COc1ccc(-c2ccc(C(=O)c3ccccc3N(C)C(=O)CCl)cc2)cc1 [IITK3064, 2-chloro-N-(2-(4′-methoxy-[1,1′-biphenyl]-4-carbonyl)phenyl)-N-methylacetamide] | 19 nM | –
10 | CN(C(=O)CBr)c1ccccc1C(=O)c1ccc(-c2cccc(Oc3ccccc3)c2)cc1 [IITK3063, 2-bromo-N-methyl-N-(2-(3′-phenoxy-[1,1′-biphenyl]-4-carbonyl)phenyl)acetamide] | 24.5 nM | –
11 | C=CCN(C(=O)COc1c(F)c(F)c(F)c(F)c1F)c1ccccc1C(=O)c1ccccc1 [IITK3022, N-allyl-N-(2-benzoylphenyl)-2-(perfluorophenoxy)acetamide] | – | EC50 (A549): 3370 nM; EC50 (U2OS): 1450 nM
12 | C=CCN(c1ccccc1C(=O)c1ccccc1)S(=O)(=O)C=C [IITK3027, N-allyl-N-(2-benzoylphenyl)ethenesulfonamide] | – | EC50 (A549): 1920 nM; EC50 (U2OS): 1220 nM
13 | COc1ccc(-c2ccc(C(=O)c3ccccc3N(C)C(=O)CBr)cc2)cc1 [IITK3065, 2-bromo-N-(2-(4′-methoxy-[1,1′-biphenyl]-4-carbonyl)phenyl)-N-methylacetamide] | 16 nM | –
14 | CN(C(=O)CBr)c1ccccc1C(=O)c1ccc(-c2ccc(C=O)cc2)cc1 [IITK3059, 2-bromo-N-(2-(4′-formyl-[1,1′-biphenyl]-4-carbonyl)phenyl)-N-methylacetamide] | 79 nM | –
15 | C=CCN(C(=O)CCl)c1ccccc1C(=O)c1ccccc1 [IITK3018, N-allyl-N-(2-benzoylphenyl)-2-chloroacetamide] | – | EC50 (A549): 2400 nM; EC50 (U2OS): 600 nM
16 | CN(C(=O)CBr)c1ccccc1C(=O)c1ccc(-c2ccc(F)cc2F)cc1 [IITK3067, 2-bromo-N-(2-(2′,4′-difluoro-[1,1′-biphenyl]-4-carbonyl)phenyl)-N-methylacetamide] | 12.1 nM | –

Row | Structure (SMILES) | EC50 (Huh-7 cells; [1]) | also measured
17 | CN(C(=O)CBr)c1ccccc1C(=O)c1ccc(-c2ccc(C#N)cc2)cc1 [IITK3061, 2-bromo-N-(2-(4′-cyano-[1,1′-biphenyl]-4-carbonyl)phenyl)-N-methylacetamide] | 4820 nM | –
18 | C#CCN(C(=O)CBr)c1ccccc1C(=O)c1ccc(-c2ccccc2)cc1 [IITK3071, N-(2-([1,1′-biphenyl]-4-carbonyl)phenyl)-2-bromo-N-(prop-2-yn-1-yl)acetamide] | < 100 nM | –
19 | C=CCN(C(=O)C=C)c1ccccc1C(=O)c1ccccc1 [IITK3026, N-allyl-N-(2-benzoylphenyl)acrylamide] | – | EC50 (A549): 32800 nM
20 | CN(C(=O)COc1c(F)c(F)c(F)c(F)c1F)c1ccccc1C(=O)c1ccccc1 [IITK3007, N-(2-benzoylphenyl)-N-methyl-2-(perfluorophenoxy)acetamide] | > 20000 nM | –
21 | CN(C(=O)CCl)c1ccccc1C(=O)c1ccc(-c2cccc([N+](=O)[O-])c2)cc1 [IITK3068, 2-chloro-N-methyl-N-(2-(3′-nitro-[1,1′-biphenyl]-4-carbonyl)phenyl)acetamide] | 3.06 nM | –
22 | C#CCOC(=O)Nc1ccc(N(C)C(=O)CBr)c(C(=O)c2ccccc2)c1 [IITK3053, prop-2-yn-1-yl (3-benzoyl-4-(2-bromo-N-methylacetamido)phenyl)carbamate] | 11700 nM | EC50 (A549): 1540 nM; EC50 (U2OS): 770 nM
23 | C#CCN(C(=O)CCl)c1ccccc1C(=O)c1ccc(-c2ccccc2)cc1 [IITK3072, N-(2-([1,1′-biphenyl]-4-carbonyl)phenyl)-2-chloro-N-(prop-2-yn-1-yl)acetamide] | > 138 nM | –
24 | CN(C(=O)CCl)c1ccc([N+](=O)[O-])cc1C(=O)c1ccccc1 [IITK3073, N-(2-benzoyl-4-nitrophenyl)-2-chloro-N-methylacetamide] | > 20000 nM | –
25 | C=CCN(C(=O)COc1ccc([N+](=O)[O-])cc1)c1ccccc1C(=O)c1ccccc1 [IITK3025, N-allyl-N-(2-benzoylphenyl)-2-(4-nitrophenoxy)acetamide] | > 100000 nM | –
26 | CN(C(=O)CCl)c1ccccc1C(=O)c1ccc(-c2cccc(Oc3ccccc3)c2)cc1 [IITK3062, 2-chloro-N-methyl-N-(2-(3′-phenoxy-[1,1′-biphenyl]-4-carbonyl)phenyl)acetamide] | 36 nM | –
27 | Cc1ccc(-c2ccc(C(=O)c3ccccc3N(C)C(=O)CBr)cc2)cc1 [IITK3057, 2-bromo-N-methyl-N-(2-(4′-methyl-[1,1′-biphenyl]-4-carbonyl)phenyl)acetamide] | 18 nM | –
28 | C#CCOC(=O)Nc1ccc(N(C)C(=O)CCl)c(C(=O)c2ccccc2)c1 [IITK3052, prop-2-yn-1-yl (3-benzoyl-4-(2-chloro-N-methylacetamido)phenyl)carbamate] | 32800 nM | EC50 (A549): 4180 nM; EC50 (U2OS): 2920 nM
29 | CN(C(=O)CBr)c1ccccc1C(=O)c1ccc(-c2cccc([N+](=O)[O-])c2)cc1 [IITK3069, 2-bromo-N-methyl-N-(2-(3′-nitro-[1,1′-biphenyl]-4-carbonyl)phenyl)acetamide] | 3.5 nM | –
30 | O=C(CBr)Nc1ccccc1C(=O)c1ccccc1 [IITK3013, N-(2-benzoylphenyl)-2-bromoacetamide] | – | EC50 (U2OS): 1520 nM
31 | O=C(COc1ccccc1)Nc1ccccc1C(=O)c1ccccc1 [IITK3014, N-(2-benzoylphenyl)-2-phenoxyacetamide] | > 20000 nM | EC50 (U2OS): > 20000 nM
32 | C=CCN(C(=O)CBr)c1ccccc1C(=O)c1ccccc1 [IITK3019, N-allyl-N-(2-benzoylphenyl)-2-bromoacetamide] | – | EC50 (A549): 300 nM; EC50 (U2OS): 30 nM

Reference: patent publication US20250099407A1, “2-AMINO BENZOPHENONE DERIVATIVES FOR TARGETED FERROPTOSIS INDUCTION IN CANCER THERAPY” (INDIAN INSTITUTE OF TECHNOLOGY KANPUR, priority 2023, published 2025)
